Reference: PubChem BioAssay AID1918941 (Molecular Pharmacology Branch, DTP, NCI, 2023)
Values joined by “and” are separate entries in the source; they are usually repeats but may differ in a detail not shown here. Equal values may be shown once.

Tested on: SW 1271 complex spheroids, viability
Test: Anticancer human tumor SW 1271 cell line growth inhibition [LSD1];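 note: spheroids exposed to agents for 7 days before luminescence read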;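 for viability, T/C: 100% = DMSO vehicle control viability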
Conditions: for viability, T/C: stronger effect = lower value
Text: Multicellular complex tumor spheroid response to LSD1 Inhibitor Iadademstat in combination with a variety of drugs and investigational agents in selected tumor cell lines
The current study was undertaken to assess response to LSD1 inhibitors in combination with standard-of-care drugs and investigational agents in solid tumor complex spheroid models as well as in the K-562 leukemia. Complex spheroids include a stromal component modeled by human endothelial cells (HUVEC) and fibroblasts modeled by human mesenchymal stem cells (MSCs). The concentration ranges selected for each drug and investigational agent were based upon clinically achievable concentrations if the clinical Cmax of the agent was known.
Compounds. The drugs and investigational agents used in this study are listed on Table 1. All of the agents used, including staurosporine (NSC755774) and gemcitabine (NSC613327), were obtained from the Developmental Therapeutics Program, NCI. FDA-approved anticancer drugs are available from the NCI at http://dtp.nci.nih.gov/branches/dscb/oncology_drugset_explanation.html. Drugs and investigational agents were >95% pure by proton nuclear magnetic resonance (NMR) and liquid chromatography/mass spectrometry (LC/MS). Stock solutions were prepared at 400x in DMSO, stored at -70 degrees C, and diluted in fresh medium prior to their use. The final concentration of DMSO in cell culture wells never exceeded 0.25% (v/v). The FDA-approved anticancer drug set is available from the Developmental Therapeutics Program at https://dtp.cancer.gov/organization/dscb/obtaining/available_plates.htm. All drugs and investigational agents were tested over a range starting from a high concentration at or near the clinical Cmax and decreasing in half-log increments. If the clinical Cmax for an agent had not been determined, the highest concentration tested was 10 microM.
Cell Lines. The patient-derived cancer cell (PDC) lines: 292921-168-R-J2-PDC, K24384-001-R-PDC, and 521955-158-R2-J5-PDC pancreatic carcinomas, 556581-035-R-J1 ovarian carcinoma, 324938-238-R-J1-PDC, 855422-203-R-J1-PDC and 883617-216-R-J1-PDC urothelial bladder carcinomas, 743489-274-T-PDC renal cell carcinoma, 138582-R-J1 Merkel cell tumor, K60290-347-R-J1 and K57222-313-R-J1-PDC glioblastomas, 653999-131-R-J2-PDC, LG0703-F948-PDC, and 349418-098-R-PDC non-small cell lung carcinomas, 885512-296-R-J2-PDC, 171881-019-R-J1-PDC breast carcinomas and 186277-243-T-J2-PDC and 233499-124-R-J2-PDC colon carcinomas were obtained from the NCI Patient-Derived Models Repository (PDMR, https://pdmr.cancer.gov). The established cell lines NCI/ADR-RES (RRID:CVCL_14520 and OVCAR-5 (RRID:CVCL_1628) ovarian carcinomas, 786-O (RRID:CVCL_1051) and A498 (RRID:CVCL_A498) renal cell carcinoma, NCI-H211 (ATCC, cat. CRL-5824; RRID:CVCL_1529), NCI-H196 (ATCC, cat. CRL-5823, RRID:CVCL_1509), SW 1271 (ATCC, cat. CRL-2177, RRID:CVCL_1716) and NCI-H1876 (ATCC, cat. CRL-5902, RRID:CVCL_1503) small cell lung carcinomas, MDA-MB-231 (RRID:CVCL_0062) and MDA-MB-468 (RRID:CVCL_0419)breast carcinomas (10-12). Pooled donor human umbilical vein endothelial cells (HUVEC, Lonza, cat. CC-2519) and human mesenchymal stem cells (hMSC, Lonza, cat. PT-2501) were purchased from Lonza (Walkersville, MD).
Cell Culture. All cells were maintained in an incubator at 37 degrees C and 5% CO2 with 95% humidity. The PDC lines were cultured according to standard operating procedures established by the NCI PDMR (https://pdmr.cancer.gov). Briefly all PDCs were thawed and cultured in Matrigel-coated flasks prepared with a working solution of 1X Ham's F-12 nutrient mix, without supplementation (Invitrogen, Waltham, MA, cat. 11765054), 100 U/mL penicillin-streptomycin (Invitrogen, cat. 15140122), and 2.5% Matrigel (Corning Inc., Corning, NY, cat. 354248) for the first three passages. […]

Row | SMILES | IC50 (curve of compound) | viability, T/C (compound 0.00316 µM) | viability, T/C (compound 0.01 µM) | viability, T/C (compound 0.0316 µM) | viability, T/C (compound 0.1 µM) | viability, T/C (compound 0.316 µM) | viability, T/C (compound 1 µM) | viability, T/C (compound 0.00949 µM) | viability, T/C (compound 0.03 µM) | viability, T/C (compound 0.0949 µM) | viability, T/C (compound 0.3 µM) | also measured
1 | CC(C)CC(NC(=O)C(Cc1ccccc1)NC(=O)c1cnccn1)B(O)O (stereo unspecified) | < 0.316 nM | 0.34% and 0.36% | 0.16% and 0.3% | 0.16% and 0.18% | 0.24% and 0.23% |  |  |  |  |  |  | viability, T/C (compound 0.000316 µM): 1.55% and 4.22%; viability, T/C (compound 0.001 µM): 0.42% and 0.29%
2 | CC(C)CC(NC(=O)CNC(=O)c1cc(Cl)ccc1Cl)B1OC(=O)CC(CC(=O)O)(C(=O)O)O1 (stereo unspecified) | 4.78 nM and 5.84 nM | 74.4% and 88% | 6.54% and 16.7% | 0.32% and 0.39% | 0.31% and 0.4% |  |  |  |  |  |  | viability, T/C (compound 0.000316 µM): 99.2% and 97.3%; viability, T/C (compound 0.001 µM): 91.3% and 86.2%
3 | CC(C)c1c(-c2ccccc2)nc2c(C#N)c[nH]n2c1=O | > 10000 nM |  |  | 85.1% and 98.1% | 83.1% and 98.6% | 83.4% and 100% | 89.3% and 88.1% |  |  |  |  | viability, T/C (compound 3.16 µM): 86.2% and 91.6%; viability, T/C (compound 10 µM): 75.1% and 94.7%
4 | CC1(C)CCC(CN2CCN(c3ccc(C(=O)NS(=O)(=O)c4ccc(NCC5CCOCC5)c([N+](=O)[O-])c4)c(Oc4cnc5[nH]ccc5c4)c3)CC2)=C(c2ccc(Cl)cc2)C1 | 2170 nM and 3600 nM |  |  | 93.1% and 103% | 97.7% and 112% | 87.7% and 98.3% | 101% and 102% |  |  |  |  | viability, T/C (compound 3.16 µM): 28.1% and 55.8%; viability, T/C (compound 10 µM): 0.45% and 4.57%
5 | CC1COCCN1c1cc(-c2ccnn2C)c2ccnc(-c3ccn[nH]3)c2n1 (stereo unspecified) | 108 nM and 92.1 nM | 72.4% and 71.8% | 72.6% and 63.3% | 50.7% and 59% | 50.3% and 47.2% | 48.2% and 43.4% | 30.1% and 28.4% |  |  |  |  | 
6 | CCN(c1cc(-c2ccc(CN3CCOCC3)cc2)cc(C(=O)NCc2c(C)cc(C)[nH]c2=O)c1C)C1CCOCC1 | > 3000 nM |  |  |  |  |  |  | 98.8% and 104% | 116% and 109% | 90.8% and 91.2% | 103% and 98.9% | viability, T/C (compound 0.949 µM): 78.3% and 82.5%; viability, T/C (compound 3 µM): 73.6% and 71.4%
7 | COc1cc(Nc2ncc3c(n2)-c2ccc(Cl)cc2C(c2c(F)cccc2OC)=NC3)ccc1C(=O)O | 179 nM and 164 nM | 92.2% and 73.8% | 86.8% and 78.9% | 72.8% and 73.9% | 58.6% and 59% | 42.5% and 36.9% | 14.1% and 15.6% |  |  |  |  | 
8 | COc1ccc([C@@H](O)c2cc(-c3ncnc4cc(N5CCOCC5)ccc34)c(F)cc2Cl)nn1 | 523 nM and 741 nM |  |  | 79.9% and 85.5% | 74.7% and 91.9% | 54.5% and 64% | 40.4% and 45.4% |  |  |  |  | viability, T/C (compound 3.16 µM): 31.7% and 28.2%; viability, T/C (compound 10 µM): 20.3% and 21.4%
9 | Cn1ncnc1C1c2n[nH]c(=O)c3cc(F)cc(c23)NC1c1ccc(F)cc1 (stereo unspecified) | > 100 nM | 87.8% and 87% | 91.1% and 85% | 84.2% and 92.2% | 91.7% and 99.5% |  |  |  |  |  |  | viability, T/C (compound 0.000316 µM): 89.1% and 97.2%; viability, T/C (compound 0.001 µM): 94.9% and 81.7%
10 | NC1CC1c1ccc(-c2cccc(O)c2)cc1 (stereo unspecified) |  |  |  |  | 86.2% |  |  |  |  |  |  | viability, T/C (compound 10 µM): 63.2% [middle of 25 runs]; IC50 (compound alone, run of 02/21/2022): > 10000 nM
11 | NC1CCC(NC2CC2c2ccccc2)CC1 (stereo unspecified) |  |  |  |  |  | 77.1% and 85.3% |  |  |  |  |  | IC50 (compound alone, run of 02/15/2022): > 10000 nM
12 | Nc1ccccc1NC(=O)c1ccc(CNC(=O)OCc2cccnc2)cc1 | 156 nM and 127 nM |  |  |  |  |  |  | 90.7% and 84.4% | 83.4% and 69.1% | 61.4% and 59.8% | 35.6% and 29.2% | viability, T/C (compound 0.949 µM): 10.2% and 7.11%; viability, T/C (compound 3 µM): 6.48% and 7.88%
13 | O=C(C=Cc1cccc(S(=O)(=O)Nc2ccccc2)c1)NO | 228 nM and 109 nM |  |  |  |  |  |  | 89.7% and 88.1% | 74.9% and 70.5% | 57.1% and 58.1% | 19.1% and 23.3% | viability, T/C (compound 0.949 µM): 9.01% and 12.3%
14 | O=C(C=Cn1cnc(-c2cc(C(F)(F)F)cc(C(F)(F)F)c2)n1)NNc1cnccn1 | 153 nM and 147 nM | 92% and 82.7% | 87.1% and 89.1% | 80% and 75.1% | 45.3% and 51.4% | 47.8% and 40.4% | 21.6% and 16.6% |  |  |  |  | 
15 | O=C(c1cc(Cc2n[nH]c(=O)c3ccccc23)ccc1F)N1CCN(C(=O)C2CC2)CC1 | > 10000 nM |  |  | 84.9% and 80.2% | 85.2% and 85.3% | 81.4% and 76.1% | 81.5% and 85.4% |  |  |  |  | viability, T/C (compound 3.16 µM): 90.2% and 77%; viability, T/C (compound 10 µM): 87.5% and 68.8%

Now from value to molecule, other results behind:

Row | IC50 (curve of compound) | SMILES | viability, T/C (compound 0.00316 µM) | viability, T/C (compound 0.01 µM) | viability, T/C (compound 0.0316 µM) | viability, T/C (compound 0.1 µM) | viability, T/C (compound 0.316 µM) | viability, T/C (compound 1 µM) | viability, T/C (compound 0.00949 µM) | viability, T/C (compound 0.03 µM) | viability, T/C (compound 0.0949 µM) | viability, T/C (compound 0.3 µM) | also measured
16 | > 10000 nM and 3980 nM | CC1COCCN1c1cc(C2(S(C)(=N)=O)CC2)nc(-c2ccnc3[nH]ccc23)n1 (stereo unspecified) |  |  | 106% and 85.9% | 97% and 88.6% | 88.2% and 78.9% | 79% and 65.3% |  |  |  |  | viability, T/C (compound 3.16 µM): 62% and 54.3%; viability, T/C (compound 10 µM): 62.1% and 39.4%
17 | > 100 nM | CC[C@@]1(O)C(=O)OCc2c1cc1n(c2=O)Cc2cc3c(CN(C)C)c(O)ccc3nc2-1 | 72.7% and 75.3% | 66.6% and 85.6% | 58.7% and 65.7% | 49.4% and 53.2% |  |  |  |  |  |  | viability, T/C (compound 0.000316 µM): 88.2% and 98.2%; viability, T/C (compound 0.001 µM): 89.6% and 109%
18 | 3.64 nM and < 0.949 nM | CCc1c2c(nc3ccc(O)cc13)-c1cc3c(c(=O)n1C2)COC(=O)[C@]3(O)CC |  |  |  |  |  |  | 23.3% and 28.8% | 7.65% and 6.53% | 6.15% and 5.62% | 3.93% and 13.3% | viability, T/C (compound 0.000949 µM): 57.8% and 46.7%; viability, T/C (compound 0.003 µM): 55.8% and 41.6%
19 | > 3000 nM | COc1cc(C2c3cc4c(cc3C(OC3OC5COC(C)OC5C(O)C3O)C3COC(=O)C23)OCO4)cc(OC)c1O (stereo unspecified) |  |  |  |  |  |  | 84.9% and 100% | 79.2% and 82.9% | 72.4% and 64.1% | 83.9% and 64.4% | viability, T/C (compound 0.949 µM): 62.5% and 66.3%; viability, T/C (compound 3 µM): 54.7% and 53.3%
20 | > 3000 nM | NS(=O)(=O)OCC1CC(n2ccc3c(NC4CCc5ccccc54)ncnc32)CC1O (stereo unspecified) |  |  |  |  |  |  | 159% and 149% | 127% and 122% | 83.5% and 85.6% | 89.7% and 67.7% | viability, T/C (compound 0.949 µM): 73.1% and 74.3%; viability, T/C (compound 3 µM): 82.1% and 73.2%
21 | > 300 nM | Nc1ccn(C2OC(CO)C(O)C2(F)F)c(=O)n1 (stereo unspecified) |  |  |  |  |  |  | 64.3% and 67.8% | 66% and 66.1% | 67.3% and 68.9% | 64.6% and 74.8% | viability, T/C (compound 0.000949 µM): 73.7% and 82.6%; viability, T/C (compound 0.003 µM): 73.8% and 71.3%
22 | > 1000 nM | Nc1ncn(C2CC(O)C(CO)O2)c(=O)n1 (stereo unspecified) | 96% and 88.2% | 86.6% and 105% | 83.1% and 88.3% | 86.9% and 93.3% | 83% and 80.3% | 86.7% and 89.8% |  |  |  |  | 
23 | > 300 nM | Nc1ncn(C2CC(O)C(CO)S2)c(=O)n1 (stereo unspecified) |  |  |  |  |  |  | 99.5% and 86.3% | 108% and 83.2% | 94.7% and 91.1% | 88.5% and 71.2% | viability, T/C (compound 0.000949 µM): 105% and 83.6%; viability, T/C (compound 0.003 µM): 112% and 88.6%
